# Assay results: US11066414B2, “Cot modulators and methods of use thereof” (Gilead Sciences, Inc., priority 2015, dated 2021)
# Like-named read-outs stand apart in the source and are kept apart here.
# Columns and labels:
# TNFα = assay: Cot Monocyte TNFα Cell Based Assay
# Human Cot = Human Cot (Homo sapiens (Human), UniProt P41279); assay: High Throughput Cot Biochemical Assay
# [1] = Homo sapiens, Monocyte, read-out: EC50 TNF, LPS-stimulated human monocytes, TNFα
# [2] = IC50 HTRF, Cot HTRF (TR-FRET) biochemical assay
# [3] = read-out: EC50 TNF, LPS-stimulated human monocytes, TNFα
# [4] = read-out: IC50 HTRF, Cot HTRF (TR-FRET) biochemical assay
# [5] = Homo sapiens, Monocyte, read-out: EC50 TNF, LPS-stimulated human monocytes, TNFα TR-FRET
# [6] = IC50 HTRF, Cot HTRF (TR-FRET KinEASE) biochemical assay, 400 μM ATP
# [7] = read-out: EC50 TNF, LPS-stimulated human monocytes, TNFα TR-FRET
# [8] = read-out: IC50 HTRF, Cot HTRF (TR-FRET KinEASE) biochemical assay, 400 μM ATP
# Sequence of Human Cot (P41279 30-397): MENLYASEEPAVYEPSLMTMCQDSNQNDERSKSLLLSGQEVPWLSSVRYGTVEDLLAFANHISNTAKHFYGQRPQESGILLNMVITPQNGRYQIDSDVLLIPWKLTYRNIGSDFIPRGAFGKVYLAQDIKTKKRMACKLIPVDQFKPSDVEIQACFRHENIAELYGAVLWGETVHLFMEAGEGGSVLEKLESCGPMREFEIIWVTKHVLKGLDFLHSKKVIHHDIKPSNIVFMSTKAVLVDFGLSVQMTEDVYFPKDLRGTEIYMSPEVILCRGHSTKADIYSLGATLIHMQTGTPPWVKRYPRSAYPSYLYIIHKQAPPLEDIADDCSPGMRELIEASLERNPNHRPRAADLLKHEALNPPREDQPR
SMILES,EC50 (TNFα; [1]) [nM],IC50 (Human Cot; [2]) [nM],EC50 (TNFα; [5]) [nM],IC50 (Human Cot; [6]) [nM],further results
"N#Cc1cnc2c(Cl)cc(N[C@H](c3cn(C4CC4)nn3)c3ccc(F)nc3F)cc2c1Nc1cnc(F)c(F)c1 [Example 149, (S)-8-chloro-6-(((1-cyclopropyl-1H-1,2,3-triazol-4-yl)(2,6-difluoropyridin-3-yl)methyl)amino)-4-((5,6-difluoropyridin-3-yl)amino)quinoline-3-carbonitrile]",381,8,,,
"Cc1ncsc1[C@H](Nc1cc(Cl)c2ncc(C#N)c(N[C@H](C)c3ccccc3)c2c1)c1cn(C2CCN(C(C)(C)C)CC2)nn1 [Example 240, 6-(((R)-(1-(1-(tert-butyl)piperidin-4-yl)-1H-1,2,3-triazol-4-yl)(4-methylthiazol-5-yl)methyl)amino)-8-chloro-4-(((R)-1-phenylethyl)amino)quinoline-3-carbonitrile]",631,16,,,
"CC[C@@H](Nc1c(C#N)cnc2c(Cl)cc(N[C@@H](c3cccnc3)c3cn(C(C)(C)C)nn3)cc12)c1ccccc1 [Example 192, 6-(((S)-(1-(tert-butyl)-1H-1,2,3-triazol-4-yl)(pyridin-3-yl)methyl)amino)-8-chloro-4-(((R)-1-phenylpropyl)arnino)quinoline-3-carbonitrile]",,,,,EC50 (TNFα; [3]): 186 nM; IC50 (Human Cot; [4]): 3 nM
"Cc1nc(F)ccc1[C@H](Nc1cc(Cl)c2ncc(C#N)c(N[C@H]3[C@@H]4COC[C@@H]43)c2c1)c1cn(C2(C(F)(F)F)CC2)nn1 [Example 608, 4-(((lR,5S,6r)-3-oxabicyclo[3.1.0]hexan-6-yl)amino)-8-chloro-6-(((S)-(6-fluoro-2-methylpyridin-3-yl)(1-(1-(trifluoromethyl)cyclo-propyl)-1H-1,2,3-triazol-4-yl)methyl)amino)-quinoline-3-carbonitrile]",,,,,EC50 (TNFα; [3]): 314 nM; IC50 (Human Cot; [4]): 42 nM
"Cn1cc([C@@H](Nc2cc(Cl)c3ncc(C#N)c(NCC(C)(C)C)c3c2)c2cccc3c(=O)n(C)ccc23)nn1 [Example 790, (S)-8-chloro-6-(((2-methyl-1-oxo-1,2-dihydroisoquinolin-5-yl)(1-methyl-1H-1,2,3-triazol-4-yl)methyl)amino)-4-(neopentylamino)quinoline-3-carbonitrile]",82,5,,,
"CC(C)(C)CNc1c(C#N)cnc2c(C#N)cc(N[C@@H](c3ccc(C#N)nc3)c3cn(C4(C(F)(F)F)CC4)nn3)cc12 [Example 826, (S)-6-(((6-cyanopyridin-3-yl)(1-(1-(trifluoromethyl)cyclopropyl)-1H-1,2,3-triazol-4-yl)methyl)amino)-4-(neopentylamino)quinoline-3,8-dicarbonitrile]",,,1000,51,
"CC[C@@H](Nc1c(C#N)cnc2c(Cl)cc(N[C@H](c3cn(C4(C(F)(F)F)CC4)nn3)c3ccc(F)nc3C)cc12)c1ccccc1 [Example 440, 8-chloro-6-(((S)-(6-fluoro-2-methyl-pyridin-3-yl)(1-(1-(trifluoromethyl)-cyclopropyl)-1H-1,2,3-triazol-4-yl)methyl)amino)-4-(((R)-1-phenyl-propyl)amino)quinoline-3-carbonitrile]",171,7,,,
"CC[C@@H](Nc1c(C#N)cnc2c(Cl)cc(N[C@@H](c3cccnc3)c3cn(CC#N)nn3)cc12)c1ccccc1 [Example 175, 8-chloro-6-(((S)-(1-(cyanomethyl)-1H-1,2,3-triazol-4-yl)(pyridin-3-yl)methyl)amino)-4-(((R)-1-phenylpropyl)amino)quinoline-3-carbonitrile]",73,3,,,
"Cn1ncc2c([C@H](Nc3cc(Cl)c4ncc(C#N)c(NCC(C)(C)C)c4c3)c3cn(C4(C)CC4)nn3)cccc21 [Example 525, (S)-8-chloro-6-(((1-methyl-1H-indazol-4-yl)(1-(1-methylcyclopropyl)-1H-1,2,3-triazol-4-yl)methyl)amino)-4-(neopentylamino)quinoline-3-carbonitrile]",164,4,,,
"Cc1nc(F)ccc1[C@H](Nc1cc(Cl)c2ncc(C#N)c(NCC(C)(C)C)c2c1)c1cn(CCCO)nn1 [Example 986, (S)-8-chloro-6-(((6-fluoro-2-methylpyridin-3-yl)(1-(3-hydroxypropyl)-1H-1,2,3-triazol-4-yl)methyl)amino)-4-(neopentylamino)quinoline-3-carbonitrile]",,,141,5,
"CC(C)(C)CNc1c(C#N)cnc2c(C#N)cc(N[C@H](c3cn(C4(C(F)(F)F)CC4)nn3)c3cccc4cnc(C#N)cc34)cc12 [Example 909, (S)-6-(((3-cyanoisoquinolin-5-yl)(1-(1-(trifluoromethyl)cyclopropyl)-1H-1,2,3-triazol-4-yl)methyl)amino)-4-(neopentylamino)quinoline-3,8-dicarbonitrile]",,,116,8,
"CC(C)(C)CNc1c(C#N)cnc2c(C#N)cc(N[C@H](c3cn(C45CC(C4)C5)nn3)c3cccc4nc(C(F)F)ccc34)cc12 [Example 901, (S)-6-(((1-(bicyclo[1.1.1]pentan-1-yl)-1H-1,2,3-triazol-4-yl)(2-(difluoromethyl)quinolin-5-yl)methyl)amino)-4-(neopentylamino)quinoline-3,8-dicarbonitrile]",,,1000,484,
"[2H]C([2H])([2H])C([2H])([2H])[C@@H](Nc1c(C#N)cnc2c(Cl)cc(N[C@@]([2H])(c3ccc(F)nc3)c3cn(C4CC4)nn3)cc12)c1ccccc1 [Example 106, 8-chloro-6-(((S)-(1-cyclopropyl-1H-1,2,3-triazol-4-yl)(6-fluoropyridin-3-yl)methyl-d)amino)-4-(((R)-1-phenylpropyl-2,2,3,3,3-d5)amino)-quinoline-3-carbonitrile]",76,2,,,
"CC(C)(C)CNc1c(C#N)cnc2c(C#N)cc(N[C@H](c3cn(C4(C(F)(F)F)CC4)nn3)c3ccc(C#N)c4ncccc34)cc12 [Example 910, (S)-6-(((8-cyanoquinolin-5-yl)(1-(1-(trifluoromethyl)cyclopropyl)-1H-1,2,3-triazol-4-yl)methyl)amino)-4-(neopentylamino)quinoline-3,8-dicarbonitrile]",,,148,5,
"COc1nccc2c([C@H](Nc3cc(Cl)c4ncc(C#N)c(NCC(C)(C)C)c4c3)c3cn(C4CC4)nn3)cccc12 [Example 912, (S)-8-chloro-6-(((1-cyclopropyl-1H-1,2,3-triazol-4-yl)(1-methoxylsoquinolin-5-yl)methyl)amino)-4-(neopentylamino)quinoline-3-carbonitrile]",,,,,EC50 (TNFα; [7]): 78 nM; IC50 (Human Cot; [8]): 6 nM
"[2H][C@](Nc1cc(Cl)c2ncc(C#N)c(NCC(C)(C)C)c2c1)(c1ccc(F)nc1)c1cn(C2(C(F)F)CC2)nn1 [Example 518, (S)-8-chloro-6-(((1-(1-(difluoromethyl)-cyclopropyl)-1H-1,2,3-triazol-4-yl)(6-fluoropyridin-3-yl)methyl-d)amino)-4-(neopentylamino)quinoline-3-carbonitrile]",207,7,,,
"[2H]C(Nc1cc(Cl)c2ncc(C#N)c(N[C@@H](CCC#N)c3ccccc3)c2c1)(c1ccc(F)nc1)c1cn(C2CC2)nn1 (stereo partly drawn) [Example 88, 8-chloro-4-(((S)-3-cyano-1-phenylpropyl)amino)-6-(((1-cyclopropyl-1H-1,2,3-triazol-4-yl)(6-fluoropyridin-3-yl)methyl-d)amino)quinoline-3-carbonitrile]",> 1000,1160,,,
"N#Cc1cnc2c(Cl)cc(N[C@H](c3c[nH]nn3)c3cccc4c3CNC4)cc2c1Nc1ccc(F)c(Cl)c1 [Example 56, (S)-8-chloro-4-((3-chloro-4-fluorophenyl)amino)-6-((isoindolin-4-yl(1H-1,2,3-triazol-4-yl)methyl)amino)quinoline-3-carbonitrile]",2520,6,,,
"CCc1ncccc1[C@H](Nc1cc(Cl)c2ncc(C#N)c(NCC(C)(C)C)c2c1)c1cn(C2(C(F)(F)F)CC2)nn1 [Example 600, (S)-8-chloro-6-(((2-ethylpyridin-3-yl)(1-(1-(trifluoromethyl)cyclopropyl)-1H-1,2,3-triazol-4-yl)methyl)amino)-4-(neopentylamino)quinoline-3-carbonitrile]",113,5,,,
"COc1ccc2c([C@H](Nc3cc(C#N)c4ncc(C#N)c(NCC(C)(C)C)c4c3)c3cn(C4(C(F)(F)F)CC4)nn3)cccc2n1 [Example 811, (S)-6-(((2-methoxyquinolin-5-yl)(1-(1-(trifluoromethyl)cyclopropyl)-1H-1,2,3-triazol-4-yl)methyl)amino)-4-(neopentylamino)quinoline-3,8-dicarbonitrile]",,,333,11,
"CC(C)(C)CNc1c(C#N)cnc2c(C#N)cc(N[C@H](c3cn(C45CC(C4)C5)nn3)c3cccc4c(=O)[nH]ccc34)cc12 [Example 888, (S)-6-(((1-(bicyclo[1.1.1]pentan-1-yl)-1H-1,2,3-triazol-4-yl)(1-oxo-1,2-dihydroisoquinolin-5-yl)methyl)amino)-4-(neopentylamino)quinoline-3,8-dicarbonitrile]",,,165,2,
"COc1nccc2c([C@H](Nc3cc(Cl)c4ncc(C#N)c(NCC(C)(C)C)c4c3)c3cn(C4(C(F)(F)F)CC4)nn3)cccc12 [Example 929, (S)-8-chloro-6-(((1-methoxylsoquinolin-5-yl)(1-(1-(trifluoromethyl)cyclopropyl)-1H-1,2,3-triazol-4-yl)methyl)amino)-4-(neopentylamino)quinoline-3-carbonitrile]",,,,,EC50 (TNFα; [7]): 157 nM; IC50 (Human Cot; [8]): 11 nM
